Where a name gives a salt, the structure may show the parent alone.
Columns and labels:
[1] = target: T1, Acetylcholinesterase (Rattus norvegicus, UniProt P37136); assay: Inhibition of AChE in rat brain cortical homogenate; type: tissue-based
T1 sequence (P37136 whole entry): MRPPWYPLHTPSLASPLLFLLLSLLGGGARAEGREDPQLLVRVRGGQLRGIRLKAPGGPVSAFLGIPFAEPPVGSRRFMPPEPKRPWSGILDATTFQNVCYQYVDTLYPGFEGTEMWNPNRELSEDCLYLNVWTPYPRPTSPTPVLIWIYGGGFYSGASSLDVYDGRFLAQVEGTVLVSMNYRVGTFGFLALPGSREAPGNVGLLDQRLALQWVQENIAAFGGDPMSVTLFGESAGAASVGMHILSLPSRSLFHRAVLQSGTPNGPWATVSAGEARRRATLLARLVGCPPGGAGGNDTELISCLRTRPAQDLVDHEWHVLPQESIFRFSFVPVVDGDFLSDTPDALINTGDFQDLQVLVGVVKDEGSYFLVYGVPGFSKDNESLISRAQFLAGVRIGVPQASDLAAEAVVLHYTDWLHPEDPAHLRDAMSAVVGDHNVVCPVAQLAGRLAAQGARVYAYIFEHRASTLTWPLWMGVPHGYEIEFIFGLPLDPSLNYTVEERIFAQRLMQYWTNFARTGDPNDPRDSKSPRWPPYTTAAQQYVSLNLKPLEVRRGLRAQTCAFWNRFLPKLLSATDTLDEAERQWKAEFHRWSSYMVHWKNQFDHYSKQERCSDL

[2] = target: Acetylcholinesterase (Homo sapiens, UniProt P22303); assay: Inhibition of AChE
Sequence of Acetylcholinesterase (Homo sapiens, UniProt P22303) (P22303 whole entry): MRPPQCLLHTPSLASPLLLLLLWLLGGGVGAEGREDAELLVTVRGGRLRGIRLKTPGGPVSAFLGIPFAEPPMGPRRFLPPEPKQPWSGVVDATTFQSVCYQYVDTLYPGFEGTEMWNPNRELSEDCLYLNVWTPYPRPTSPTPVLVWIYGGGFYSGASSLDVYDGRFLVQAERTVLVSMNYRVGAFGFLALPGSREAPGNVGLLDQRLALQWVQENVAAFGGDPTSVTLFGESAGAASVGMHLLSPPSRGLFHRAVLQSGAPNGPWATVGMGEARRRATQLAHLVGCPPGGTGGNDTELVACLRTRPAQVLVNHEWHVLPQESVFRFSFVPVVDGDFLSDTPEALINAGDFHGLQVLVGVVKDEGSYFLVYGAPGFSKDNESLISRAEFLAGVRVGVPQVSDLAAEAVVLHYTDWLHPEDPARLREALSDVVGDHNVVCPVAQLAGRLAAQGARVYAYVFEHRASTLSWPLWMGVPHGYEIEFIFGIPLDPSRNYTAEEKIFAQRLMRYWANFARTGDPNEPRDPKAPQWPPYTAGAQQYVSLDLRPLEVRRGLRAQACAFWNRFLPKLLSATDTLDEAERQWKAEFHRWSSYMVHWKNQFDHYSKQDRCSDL

[3] = Selectivity ratio of IC50 for AChE to IC50 for BChE

COc1cc2oc(=O)c(C)c(C)c2cc1OCCCN1CCN(c2ccccc2OC)CC1 [ENSACULIN HYDROCHLORIDE]
IC50 [1]: 360 nM

COc1ccccc1NCc1cc(=O)oc2cc3oc4ccccc4c3cc12
IC50 [2]: 190 nM

COc1cc2c(C)c(OC)c(=O)oc2cc1OCCCCOc1cc(O)cc(N(C)C)c1
IC50 [2]: 275 nM

COc1cc2oc(=O)c(OCCCCOc3cc(O)cc(N(C)C)c3)c(C)c2cc1OC
IC50 [2]: 0.236 nM
Ratio IC50 [3]: > 300000
